In ChEMBL document CHEMBL1201862, “PubChem BioAssay data set” (2004):
Active and inactive are the calls of the source. For most assays here, no stated cut-off is given here; in the data, actives have a measured EC50 and inactives only a lower limit.

Key:
[1] = molecular target: T1, Rac GTPase-activating protein 1 (Homo sapiens, UniProt Q9H0H5); assay: MgcRacGAP GTPase-activating activity inhibitors, confirmation, biochemical, ADP Hunter fluorescence, primary and confirmatory (AID 624330); type: functional
T1 sequence (Q9H0H5 whole entry): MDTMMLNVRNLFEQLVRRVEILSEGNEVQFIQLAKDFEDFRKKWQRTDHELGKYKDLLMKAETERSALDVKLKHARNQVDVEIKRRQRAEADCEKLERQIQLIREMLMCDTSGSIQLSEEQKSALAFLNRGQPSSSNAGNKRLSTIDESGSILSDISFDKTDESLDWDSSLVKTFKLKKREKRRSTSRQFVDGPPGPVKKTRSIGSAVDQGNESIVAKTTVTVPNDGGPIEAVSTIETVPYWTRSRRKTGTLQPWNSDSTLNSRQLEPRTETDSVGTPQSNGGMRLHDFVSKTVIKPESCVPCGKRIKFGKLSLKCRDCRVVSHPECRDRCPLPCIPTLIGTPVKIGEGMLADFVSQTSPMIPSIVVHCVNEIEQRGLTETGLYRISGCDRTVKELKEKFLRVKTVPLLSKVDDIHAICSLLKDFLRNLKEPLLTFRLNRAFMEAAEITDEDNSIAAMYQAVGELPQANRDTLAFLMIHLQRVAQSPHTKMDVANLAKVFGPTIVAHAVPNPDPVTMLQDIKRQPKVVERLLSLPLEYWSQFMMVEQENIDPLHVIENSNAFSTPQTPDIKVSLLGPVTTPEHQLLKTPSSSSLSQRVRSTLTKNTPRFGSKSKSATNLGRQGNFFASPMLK

[2] = growth suppression of beta-catenin-knockout colon cells, dose response, cell-based, HCT116, human colon tumor (AID 1045); type: functional;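 further: HCT116 colon tumor cells with beta catenin knocked out; cells exposed to compound for 60 hours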
[3] = Luminescence Cell-Based Dose Response HTS to Identify Activators of Luciferase Translation or Activity in H4 […] Cells. [Related pubchem assays: 1829 (Project Summary), 1814 (Primary HTS)]; type: functional
H4 = assay: Luminescence Cell-Based Dose Response HTS to Identify Activators of 5'UTR Stem-Loop Driven Prion Protein mRNA Translation in H4 Neuroglioblastoma Cells. [Related pubchem assays: 1829 (Project Summary), 1814 (Primary HTS)]; type: functional; details: Homo sapiens
[4] = Luminescence Cell-Based Dose Confirmation HTS to Identify Activators of 5'UTR Stem-Loop Driven Alpha-Synuclein mRNA Translation in H4 Neuroglioblastoma Cells. [Related pubchem assays: 1829 (Project Summary), 1814 (Primary HTS)]; type: functional
[5] = molecular target: T2, Corticotropin-releasing factor receptor 2/Corticotropin-releasing factor-binding protein (Homo sapiens, UniProt P24387+Q13324); assay: activators of CRF receptor 2 with binding protein – uHTS hits, confirmation (AID 602473); type: functional; details: read-out: EC50_Mean
T2 sequence (Q13324 whole entry): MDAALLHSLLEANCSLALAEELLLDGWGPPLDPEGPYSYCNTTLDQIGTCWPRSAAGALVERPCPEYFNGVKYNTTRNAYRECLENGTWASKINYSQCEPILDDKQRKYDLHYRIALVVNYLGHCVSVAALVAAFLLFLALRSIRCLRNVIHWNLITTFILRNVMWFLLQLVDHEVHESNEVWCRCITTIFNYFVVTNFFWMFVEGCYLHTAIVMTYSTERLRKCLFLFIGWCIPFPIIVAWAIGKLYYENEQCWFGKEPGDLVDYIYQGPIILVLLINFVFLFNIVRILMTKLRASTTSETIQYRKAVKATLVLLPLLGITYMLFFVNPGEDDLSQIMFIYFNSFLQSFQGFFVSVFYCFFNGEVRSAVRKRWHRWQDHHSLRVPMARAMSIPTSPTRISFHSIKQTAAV
T2 sequence (P24387 whole entry): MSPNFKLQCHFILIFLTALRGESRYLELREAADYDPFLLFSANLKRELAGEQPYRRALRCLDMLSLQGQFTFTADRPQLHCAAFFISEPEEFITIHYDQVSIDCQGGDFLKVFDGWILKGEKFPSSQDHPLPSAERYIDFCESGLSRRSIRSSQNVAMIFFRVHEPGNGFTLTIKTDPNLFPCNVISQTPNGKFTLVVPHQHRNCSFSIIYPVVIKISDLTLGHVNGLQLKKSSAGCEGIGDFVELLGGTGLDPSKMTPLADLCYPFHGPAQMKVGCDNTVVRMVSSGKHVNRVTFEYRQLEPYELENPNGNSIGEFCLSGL

[6] = molecular target: T2, Corticotropin-releasing factor receptor 2/Corticotropin-releasing factor-binding protein; assay: Dose Response confirmation of uHTS hits for small molecule antagonists of the CRF-binding protein and CRF-R2 receptor complex.; type: functional; details: read-out: IC50_Mean
[7] = molecular target: T3, Heat shock factor protein 1 (Mus musculus, UniProt P38532); assay: inhibition of MG132-induced HSE-luciferase signal, confirmation, cell-based, NIH3T3, luminescence, dose retest (AID 2382); type: functional;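 further: NIH3T3 fibroblasts with HSF1-driven luciferase reporter stressed by proteasome inhibitor MG132; luminescence from HSF1-driven luciferase expression after 8 hours of MG132 stress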
T3 sequence (P38532 whole entry): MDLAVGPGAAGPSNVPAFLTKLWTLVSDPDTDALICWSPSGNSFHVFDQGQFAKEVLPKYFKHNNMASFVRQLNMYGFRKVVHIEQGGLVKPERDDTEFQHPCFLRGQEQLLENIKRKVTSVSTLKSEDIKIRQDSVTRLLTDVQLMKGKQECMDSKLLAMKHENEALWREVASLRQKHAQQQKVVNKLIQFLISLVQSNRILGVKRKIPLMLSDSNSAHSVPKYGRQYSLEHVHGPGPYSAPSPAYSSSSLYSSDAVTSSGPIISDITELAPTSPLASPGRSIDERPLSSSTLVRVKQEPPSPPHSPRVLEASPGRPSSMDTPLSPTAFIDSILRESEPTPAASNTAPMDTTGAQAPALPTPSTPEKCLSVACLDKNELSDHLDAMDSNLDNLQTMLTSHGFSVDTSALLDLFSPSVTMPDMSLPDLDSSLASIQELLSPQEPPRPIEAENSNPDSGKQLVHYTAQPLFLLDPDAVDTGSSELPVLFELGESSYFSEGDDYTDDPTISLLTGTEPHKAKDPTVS

[8] = HEp-2 cell cytotoxicity, dose response, cytotoxicity control for RSV inhibitor project, HTS (AID 2410); type: functional; details: human respiratory syncytial virus
cells [9] = type: functional, cell-based
cells [10] = type: functional, cell-based; remark: listed apart in the source

COCCCNC(=O)/C(C#N)=C/c1c(N2CCN(c3ccc(OC)cc3)CC2)nc2c(C)cccn2c1=O
IC50 [1]: 114 µM (active)

CN(C)c1ccc(NC(=O)COC(=O)CNC(=O)c2cccs2)cc1
IC50 [1]: 45.6 µM (active)

Fc1ccc(CN2CCN(C(c3ccccc3)c3ccccc3)CC2)cc1
IC50 [1]: 236 µM (active)

CCn1c(CNc2ccc(OC)cc2)nnc1SCC(=O)c1ccc(OC)cc1
EC50 [2]: 470 µM (active)

Cc1cccc(-n2cnc3cc(C(=O)N4CCCCC4)ccc32)c1
EC50 [3]: 7.6 µM (active)
EC50 (H4): 13.9 µM (active)
EC50 [4]: 17.9 µM (active)

O=C(O)c1cc(-c2ccccc2)nc(-c2ccccc2)c1
EC50 [5]: > 53 µM (inactive)
IC50 [6]: > 47.1 µM (inactive)

Cc1cc(C(c2nnnn2Cc2ccccc2)N2CCOCC2)c(C)n1-c1ccc2c(c1)OCO2 (configuration not stated)
EC50 [3]: > 120 µM (not active)
EC50 (H4): 35.6 µM (active)
EC50 [4]: 91.8 µM (active)

Cc1ccc(C)n1NC(=O)c1ccccc1O
EC50 [5]: > 53 µM (inactive)
EC50 [7]: > 195 µM (not active)
IC50 [6]: > 47.1 µM (inactive)

COc1ccccc1C(=O)N1CCN(Cc2cccnc2)CC1
IC50 [1]: 101 µM (active)

N#C/C(=C\C1CC=CCC1)c1nc2ccccc2[nH]1 (configuration not stated)
EC50 [3]: 26.3 µM (active)
EC50 (H4): 23.7 µM (active)
EC50 [4]: 21.9 µM (active)
CC50 [8]: 23.4 µM (active)

Cc1ccc(Cn2nc(-c3ccccc3)nc2-c2ccccc2)cc1
EC50 [3]: 20 µM (active)
EC50 (H4): 17.9 µM (active)
EC50 [4]: 5.09 µM (active)

O=C(/C=C/c1cccs1)Nc1ccc(N2CCOCC2)c(S(=O)(=O)Nc2ccccc2Cl)c1
EC50 [3]: 46.3 µM (active)
EC50 (H4): 22.2 µM (active)
EC50 [4]: 12 µM (active)

COc1ccc(/C=C2\SC(=O)N(CCNC(=O)C3CCN(S(=O)(=O)c4cccs4)CC3)C2=O)cc1
EC50 [3]: 36.7 µM (active)
EC50 (H4): 19.1 µM (active)
EC50 [4]: 10.2 µM (active)

CC(C)(C)c1cc(C(=O)N2CCN(c3ncccn3)CC2)ccn1
EC50 (cells [9]): > 350 µM (not active)
EC50 (cells [10]): > 350 µM (not active)

Cc1ccc(OCc2cc(C(=O)N3CCN(CC(=O)NC(C)C)CC3)no2)cn1
EC50 [5]: > 53 µM (inactive)
IC50 [6]: > 47.1 µM (inactive)

O=C(c1cnn2c1NC(c1ccco1)CC2C(F)(F)F)N1CCN(c2cccc(Cl)c2)CC1 (configuration not stated)
EC50 [3]: > 120 µM (not active)
EC50 (H4): > 120 µM (not active)
EC50 [4]: > 120 µM (not active)

O=C1/C(=C/c2nc3ccccc3[nH]2)SC(=S)N1c1ccccc1
EC50 (cells [9]): > 350 µM (not active)
EC50 (cells [10]): > 350 µM (not active)

N#Cc1cccc(NCC(=O)Nc2ccc3c(c2)OCCO3)c1
EC50 [5]: > 53 µM (inactive)
IC50 [6]: > 47.1 µM (inactive)

c1ccc(-c2ccc(OCCOCCn3cncn3)cc2)cc1
EC50 [3]: 45.9 µM (active)
EC50 (H4): 17.2 µM (inconclusive)
EC50 [4]: 30.9 µM (active)

CCn1cc(Br)c(-c2nc3ccccc3c(=O)n2N)n1
EC50 [3]: 8.16 µM (active)
EC50 (H4): > 120 µM (not active)
EC50 [4]: 102 µM (active)

O=C(CSc1nc(O)c2ccccc2n1)Nc1ccc(Br)cc1
EC50 (cells [9]): > 350 µM (not active)
EC50 (cells [10]): > 350 µM (not active)

O=C1N=C(N2CCCCC2)SC1=C1CCCCC1
EC50 [3]: 5.25 µM (active)
EC50 (H4): 21.5 µM (active)
EC50 [4]: 13.8 µM (active)

CN(CCOC(=O)CN1C(=O)c2ccccc2C1=O)C1=NS(=O)(=O)c2ccccc21
EC50 [3]: 46.8 µM (active)
EC50 (H4): > 120 µM (not active)
EC50 [4]: > 120 µM (not active)

Cc1csc(NC(=O)Cc2ccc(Br)cc2)n1
EC50 [5]: > 53 µM (inactive)
IC50 [6]: > 47.1 µM (inactive)

NC(=O)COC(=O)c1ccc(-c2ccc(O)cc2)cc1
EC50 [5]: > 53 µM (inactive)
IC50 [6]: > 47.1 µM (inactive)

Cc1cc(OC(C)C(=O)NNC(=O)Nc2ccc(F)cc2F)cc(C)c1Cl (configuration not stated)
EC50 (cells [9]): > 350 µM (not active)
EC50 (cells [10]): > 350 µM (not active)

O=C1/C(=C/c2ccccn2)SC(=S)N1CCc1ccccc1
EC50 [3]: 10.9 µM (active)
EC50 (H4): 19.4 µM (active)
EC50 [4]: 8.16 µM (active)

CCOC(=O)c1cc(C)sc1NC(=O)CCC(=O)O
EC50 [5]: > 53 µM (inactive)
IC50 [6]: > 47.1 µM (inactive)

COc1ccc(NC2CCCN(C(=O)CCN3CCCO3)C2)cc1 (configuration not stated)
IC50 [1]: 128 µM (active)

COc1ccc(C2C3=C(O)CC(C)(C)CC3=Nc3c2c(=O)n(C)c(=O)n3C)cc1OC (configuration not stated)
EC50 [5]: > 53 µM (inactive)
IC50 [6]: > 47.1 µM (inactive)

COc1ccc(C2=Nc3ccccc3C2(O)CCN2C(=O)c3ccccc3C2=O)cc1 (configuration not stated)
EC50 [5]: > 53 µM (inactive)
IC50 [6]: > 47.1 µM (inactive)

O=C(NCCc1cccnc1)C1CCC(=O)N(Cc2ccc(Cl)cc2)C1 (configuration not stated)
EC50 [5]: > 53 µM (inactive)
IC50 [6]: > 47.1 µM (inactive)

COc1ccc(NC2CCCN(C(=O)C3=NNC(=O)CC3)C2)cc1 (configuration not stated)
IC50 [1]: 120 µM (active)

Cc1noc(C)c1NC(=O)Nc1ccc2c(c1)C(=O)N([C@H](C)CO)C[C@H](C)[C@@H](CN(C)S(=O)(=O)c1ccc(F)cc1)O2
EC50 [5]: > 53 µM (inactive)
IC50 [6]: > 47.1 µM (inactive)

CCOc1ccccc1C(=O)OCC(=O)NCC1CCCO1 (configuration not stated)
EC50 [5]: > 53 µM (inactive)
IC50 [6]: > 47.1 µM (inactive)

Cc1cn([C@H]2C[C@H](O)[C@@H](CNCC3=Cc4cc(O)ccc4OC3)O2)c(=O)[nH]c1=O
IC50 [1]: 95.9 µM (active)

CCOc1ccccc1N(CC(=O)N/N=C/c1cc(Br)ccc1OC)S(C)(=O)=O
EC50 (cells [9]): > 350 µM (not active)
EC50 (cells [10]): > 350 µM (not active)

N#Cc1nc(Nc2cccc(Cl)c2)c2ncn(C3CCCC3)c2n1
EC50 [5]: > 53 µM (inactive)
IC50 [6]: > 47.1 µM (inactive)
